In US20240391965A1, “STAPLED ANTIMICROBIAL PEPTIDES (STAMPS) AND USES THEREOF” (Lytica Therapeutics, Inc., priority 2021, published 2024):
Values after ≈ are worked out from the molar mass of the structure shown. Starred links: 1 amine or outer side, 2 acyl side, 3 side chain; linkers in the order of their positions; H or OH if unused. Positions of bridges follow the written chain, without caps; N, C: chain ends. Residues, ends and D or L forms follow the SMILES beside them. 2,2'Bipyridine(5,5'-diCH2) = c1cc(-c2ccc(C[*:2])cn2)ncc1C[*:1]; Naphthalene(2,6-diCH2) = c1cc2cc(C[*:2])ccc2cc1C[*:1]

How the values were obtained:
[1] = 90 minute cytotoxicity assay (LDH release), renal toxicity; type: cell-based; conditions: 90 minutes of incubation, LDH release; read-out: Inhibitory Concentration at 50% Cytotoxicity (IC50) Human Renal Proximal Tubule Epithelial Cells (RPTEC)
Summary of the method: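 RPTEC plated overnight, given fresh medium, then exposed to serial peptide dilutions or vehicle for 90 min at 37° C. Medium LDH measured by 10 min reagent incubation and absorbance at 490 nm.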

[2] = 48 hours cytotoxicity assay (CellTiter-Glo), liver toxicity; type: cell-based, human; conditions: 48 hours of incubation, CellTiter-Glo; read-out: Inhibitory Concentration at 50% Cytotoxicity (IC50) Human Liver Cells (HepG2)
Summary of the method: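 HepG2 cells in EMEM with 10% FBS, allowed to attach 4 h, then exposed to serially diluted StAMPs or vehicle for 48 h at 37 °C. Viability read by CellTiter-Glo luminescence.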

[3] = tested on: Acinetobacter baumannii (A. baumannii); type: cell-based; conditions: microbroth dilution, 20-24 hours at 37° C.
Summary of the method: (§1)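 Minimum inhibitory concentrations come from a CLSI-adapted broth microdilution. Cells grew in Mueller-Hinton or cation-adjusted Mueller-Hinton broth, were exposed to peptide dilutions at 5×10^5 CFU/ml, and were read by eye after 20-24 h at 37 °C.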

[4] = tested on: Escherichia coli (E. coli); type: cell-based; conditions: microbroth dilution, 20-24 hours at 37° C.
Summary of the method: as §1

[5] = tested on: Staphylococcus aureus (S. aureus); type: cell-based; conditions: microbroth dilution, 20-24 hours at 37° C.
Summary of the method: as §1

[6] = tested on: Pseudomonas aeruginosa (P. aeruginosa); type: cell-based; conditions: microbroth dilution, 20-24 hours at 37° C.
Summary of the method: as §1

[7] = tested on: Klebsiella pneumoniae (K. pneumoniae); type: cell-based; conditions: microbroth dilution, 20-24 hours at 37° C.
Summary of the method: as §1

SMILES	IC50 [1] [µg/mL]	IC50 [2] [µg/mL]	Minimum Inhibitory Concentration (MIC) A. baumannii [3] [µg/mL]	Minimum Inhibitory Concentration (MIC) E. coli [4] [µg/mL]	Minimum Inhibitory Concentration (MIC) S. aureus [5] [µg/mL]	Minimum Inhibitory Concentration (MIC) P. aeruginosa [6] [µg/mL]	Minimum Inhibitory Concentration (MIC) K. pneumoniae [7] [µg/mL]
CC[C@H](C)[C@H](NC(=O)CN)C(=O)N[C@H]1CSCc2ccc(nc2)-c2ccc(cn2)CSC[C@@H](C(=O)N[C@H](C(=O)N[C@@H](CCCCN)C(=O)N[C@@H](CC(N)=O)C(=O)N[C@@H](CC(C)C)C(=O)N[C@@H](CC(C)C)C(=O)N[C@H](C(=O)N[C@@H](CO)C(=O)NCC(=O)N[C@@H](CC(C)C)C(=O)N[C@@H](CCCCN)C(=O)NCC(N)=O)[C@@H](C)CC)[C@@H](C)CC)NC(=O)[C@H](CCCCN)NC(=O)CNC(=O)[C@H](C)NC(=O)[C@H](CC(C)C)NC(=O)[C@H](CCCCN)NC(=O)[C@H](CO)NC1=O [compound 54] (H-GICSKLAGKCIKNLLISGLKG-NH2; linker 3-10 via 2,2'Bipyridine(5,5'-diCH2); N-terminus assumed)	81 (≈ 35.3 µM)	43 (≈ 18.7 µM)	8	8	64	64	16
CC[C@H](C)[C@H](NC(=O)CN)C(=O)N[C@H]1CSCc2ccc3cc(ccc3c2)CSC[C@@H](C(=O)N[C@H](C(=O)N[C@@H](CCCCN)C(=O)N[C@@H](CC(N)=O)C(=O)N[C@@H](CC(C)C)C(=O)N[C@@H](CC(C)C)C(=O)N[C@H](C(=O)N[C@@H](CO)C(=O)NCC(=O)N[C@@H](CC(C)C)C(=O)N[C@@H](CCCCN)C(=O)NCC(N)=O)[C@@H](C)CC)[C@@H](C)CC)NC(=O)[C@H](CCCCN)NC(=O)CNC(=O)[C@H](C)NC(=O)[C@H](CC(C)C)NC(=O)[C@H](CCCCN)NC(=O)[C@H](CO)NC1=O [compound 55] (H-GICSKLAGKCIKNLLISGLKG-NH2; linker 3-10 via Naphthalene(2,6-diCH2); N-terminus assumed)	23 (≈ 10.1 µM)	53 (≈ 23.4 µM)	8	8	32	32	16
CC[C@H](C)[C@H](NC(=O)CN)C(=O)N[C@@H](Cc1ccccc1)C(=O)N[C@H]1CSCc2ccc(nc2)-c2ccc(cn2)CSC[C@@H](C(=O)N[C@@H](CCCCN)C(=O)N[C@@H](CC(N)=O)C(=O)N[C@@H](CC(C)C)C(=O)N[C@@H](CC(C)C)C(=O)N[C@H](C(=O)N[C@@H](CO)C(=O)NCC(=O)N[C@@H](CC(C)C)C(=O)N[C@@H](CCCCN)C(=O)NCC(N)=O)[C@@H](C)CC)NC(=O)[C@H](CCCCN)NC(=O)[C@H](CCCCN)NC(=O)CNC(=O)[C@H](C)NC(=O)[C@H](CC(C)C)NC(=O)[C@H](CCCCN)NC1=O [compound 57] (H-GIFCKLAGKKCKNLLISGLKG-NH2; linker 4-11 via 2,2'Bipyridine(5,5'-diCH2); N-terminus assumed)	> 200	103 (≈ 43.4 µM)	16	16	>64	>64	>64
CC[C@H](C)[C@H](NC(=O)CN)C(=O)N[C@@H](Cc1ccccc1)C(=O)N[C@H]1CSCc2ccc3cc(ccc3c2)CSC[C@@H](C(=O)N[C@@H](CCCCN)C(=O)N[C@@H](CC(N)=O)C(=O)N[C@@H](CC(C)C)C(=O)N[C@@H](CC(C)C)C(=O)N[C@H](C(=O)N[C@@H](CO)C(=O)NCC(=O)N[C@@H](CC(C)C)C(=O)N[C@@H](CCCCN)C(=O)NCC(N)=O)[C@@H](C)CC)NC(=O)[C@H](CCCCN)NC(=O)[C@H](CCCCN)NC(=O)CNC(=O)[C@H](C)NC(=O)[C@H](CC(C)C)NC(=O)[C@H](CCCCN)NC1=O [compound 58] (H-GIFCKLAGKKCKNLLISGLKG-NH2; linker 4-11 via Naphthalene(2,6-diCH2); N-terminus assumed)	131 (≈ 55.9 µM)	51 (≈ 21.8 µM)	4	16	>64	64	32
CC[C@H](C)[C@H](NC(=O)CN)C(=O)N[C@@H](Cc1ccccc1)C(=O)N[C@@H](CO)C(=O)N[C@@H](CCCCN)C(=O)N[C@@H](CC(C)C)C(=O)N[C@H]1CSCc2ccc3cc(ccc3c2)CSC[C@@H](C(=O)N[C@@H](CC(C)C)C(=O)N[C@H](C(=O)N[C@@H](CO)C(=O)NCC(=O)N[C@@H](CC(C)C)C(=O)N[C@@H](CCCCN)C(=O)NCC(N)=O)[C@@H](C)CC)NC(=O)[C@H](CC(N)=O)NC(=O)[C@H](CCCCN)NC(=O)[C@H]([C@@H](C)CC)NC(=O)[C@H](CCCCN)NC(=O)[C@H](CCCCN)NC(=O)CNC1=O [compound 87] (H-GIFSKLCGKKIKNCLISGLKG-NH2; linker 7-14 via Naphthalene(2,6-diCH2))	44 (≈ 18.7 µM)	54 (≈ 22.9 µM)	4	4	64	8	8
